Laboratory results published in patent US10597388B2, “Pyridazinone herbicides” (FMC CORPORATION, priority 2014, dated 2020).

How the values were obtained:
Format in all cases: in vivo
rice (Oryza sativa) = experiment: Test B flooded paddy test; details: 250 g ai/ha, Flood; visual rating on scale of 0 to 100 where 0 is no effect and 100 is complete control; 13 to 15 d after treatment
Procedure, shortened: (§1)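 Plants grown to the 2-leaf stage. At treatment, pots were flooded to 3 cm above the soil, compound was applied directly to the paddy water, and that depth was held throughout. After 13 to 15 d in the greenhouse, response was rated visually against controls on a 0 (no effect) to 100 (complete control) scale.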

[1] = tested on: barnyardgrass (Echinochloa crus-galli); experiment: Test B flooded paddy test; details: 250 g ai/ha, Flood; visual rating on scale of 0 to 100 where 0 is no effect and 100 is complete control; 13 to 15 d after treatment
Procedure, shortened: as §1

[2] = tested on: sedge, umbrella (small-flower umbrella sedge, Cyperus difformis); experiment: Test B flooded paddy test; details: 250 g ai/ha, Flood; visual rating on scale of 0 to 100 where 0 is no effect and 100 is complete control; 13 to 15 d after treatment
Procedure, shortened: as §1

[3] = tested on: ducksalad (Heteranthera limosa); experiment: Test B flooded paddy test; details: 250 g ai/ha, Flood; visual rating on scale of 0 to 100 where 0 is no effect and 100 is complete control; 13 to 15 d after treatment
Procedure, shortened: as §1

[4] = tested on: galium (catchweed bedstraw, Galium aparine); experiment: Test A greenhouse herbicide test, postemergence; details: for Galium plant response rating: 0 to 100 scale, 0 is no effect, 100 is complete control
Procedure, shortened: (§2)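 Pot-grown plants (loam soil/sand blend), 2–10 cm tall at the one- to two-leaf stage, received postemergence sprays of formulated test chemical. After about 10 d in the greenhouse, injury was rated visually against untreated controls on a 0 (no effect) to 100 (complete control) scale.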

[5] = tested on: blackgrass (Alopecurus myosuroides); experiment: Test A greenhouse herbicide test, postemergence; details: for Plant response rating, Blackgrass: 125 g ai/ha, 0 to 100 scale where 0 is no effect and 100 is complete control; for Blackgrass plant response rating: 500 g ai/ha, 0 to 100 scale, 0 is no effect, 100 is complete control
Procedure, shortened: as §2

[6] = tested on: pigweed (Amaranthus retroflexus); experiment: Test A greenhouse herbicide test, pre- and postemergence
Text: (§3) Seeds of plant species selected from barnyardgrass (Echinochloa crus-galli), kochia (Kochia scoparia), ragweed (common ragweed, Ambrosia elatior), ryegrass, Italian (Italian ryegrass, Lolium multiflorum), crabgrass, large (large crabgrass, Digitaria sanguinalis), foxtail, giant (giant foxtail, Setaria faberii), momingglory (Ipomoea spp.), pigweed (Amaranthus retroflexus), velvetleaf (Abutilon theophrasti), wheat (Triticum aestivum), and corn (Zea mays) were planted into a blend of loam soil and sand and treated preemergence with a directed soil spray using test chemicals formulated in a non-phytotoxic solvent mixture which included a surfactant.
(§4) At the same time, plants selected from these crop and weed species and also blackgrass (Alopecurus myosuroides), and galium (catchweed bedstraw, Galium aparine) were planted in pots containing the same blend of loam soil and sand and treated with postemergence applications of test chemicals formulated in the same manner. Plants ranged in height from 2 to 10 cm and were in the one- to two-leaf stage for the postemergence treatment. Treated plants and untreated controls were maintained in a greenhouse for approximately 10 d, after which time all treated plants were compared to untreated controls and visually evaluated for injury. Plant response ratings, summarized in Table A, are based on a 0 to 100 scale where 0 is no effect and 100 is complete control. A dash (-) response means no test result.

[7] = tested on: barnyardgrass (Echinochloa crus-galli); experiment: as above
Text: as §3, §4

kochia (Kochia scoparia) = experiment: as above
Text: as §3, §4

corn (Zea mays) = experiment: as above; details: Postemergence; for Corn plant response rating: 0 to 100 scale, 0 is no effect, 100 is complete control
Text: as §3, §4

[8] = tested on: foxtail, giant (giant foxtail, Setaria faberii); experiment: as above
Text: as §3, §4

[9] = tested on: ragweed (common ragweed, Ambrosia elatior); experiment: as above
Text: as §3, §4

[10] = tested on: ryegrass, Italian (Italian ryegrass, Lolium multiflorum); experiment: as above
Text: as §3, §4

[11] = tested on: wheat (Triticum aestivum); experiment: as above; details: Postemergence; for Wheat plant response rating: 0 to 100 scale, 0 is no effect, 100 is complete control
Text: as §3, §4

[12] = 125 g ai/ha, 0 to 100 scale where 0 is no effect and 100 is complete control
[13] = Postemergence, 125 g ai/ha, 0 to 100 scale where 0 is no effect and 100 is complete control
[14] = Postemergence, 500 g ai/ha, 0 to 100 scale, 0 is no effect, 100 is complete control
[15] = Preemergence, 125 g ai/ha, 0 to 100 scale where 0 is no effect and 100 is complete control
[16] = Preemergence, 500 g ai/ha, 0 to 100 scale, 0 no effect, 100 complete control
[17] = Preemergence, 500 g ai/ha, 0 to 100 scale where 0 is no effect and 100 is complete control
[18] = 500 g ai/ha, visual rating after approx. 10 d, 0 to 100 scale (0 no effect, 100 complete control)
[19] = Postemergence, 500 g ai/ha, visual rating after approx. 10 d, 0 to 100 scale (0 no effect, 100 complete control)

SMILES	Plant response rating, Rice (rice (Oryza sativa))	Plant response rating, Barnyardgrass [1]	Plant response rating, Sedge, Umbrella [2]	Plant response rating, Ducksalad [3]	Plant response rating, Galium [4, 12]	Plant response rating, Blackgrass [5]	Blackgrass plant response rating [5]	Plant response rating, Pigweed [6, 13]	Pigweed plant response rating [6, 15]	Plant response rating, Barnyardgrass [7, 13]	Barnyardgrass plant response rating [7, 14]	Barnyardgrass plant response rating [7, 15]	Plant response rating, Kochia (kochia (Kochia scoparia); [13])	Kochia plant response rating (kochia (Kochia scoparia); [15])	Plant response rating, Corn (corn (Zea mays); [12])	Plant response rating, Foxtail, Giant [8, 13]	Foxtail, Giant plant response rating [8, 15]	Plant response rating, Ragweed [9, 13]	Ragweed plant response rating [9, 15]	Plant response rating, Ryegrass, Italian [10, 13]	also measured
COc1nn(C)c(=O)c(-c2cccc3ccccc23)c1O [Compound 55]	0	0	0	0	100	70	80	70	70	60	90	90	90	70	0	70	80	90	90	100	Galium plant response rating ([4]; 500 g ai/ha): 100; Pigweed plant response rating [6, 14]: 90; Plant response rating, Pigweed [6, 16]: 100; Plant response rating, Barnyardgrass [7, 16]: 90; Kochia plant response rating (kochia (Kochia scoparia); [14]): 100; Plant response rating, Kochia (kochia (Kochia scoparia); [16]): 100; Corn plant response rating (corn (Zea mays); 500 g ai/ha): 20; Foxtail, Giant plant response rating [8, 14]: 90; Plant response rating, Foxtail, Giant [8, 16]: 100; Ragweed plant response rating [9, 14]: 100; Plant response rating, Ragweed [9, 16]: 100; Ryegrass, Italian plant response rating [10, 14]: 100; Ryegrass, Italian plant response rating [10, 15]: 100; Plant response rating, Ryegrass, Italian [10, 16]: 100; Plant response rating, Wheat [11, 12]: 0; Wheat plant response rating ([11]; 500 g ai/ha): 0
Cc1sc2ccccc2c1-c1c(OC(=O)OC(C)C)c(Cl)nn(C)c1=O [Compound 94]	0	0	0	0	80	0	30	30	70	0	40	0	30	30	0	30	20	10	50	30	Galium plant response rating ([4]; 500 g ai/ha): 90; Pigweed plant response rating [6, 14]: 70; Plant response rating, Pigweed [6, 17]: 90; Plant response rating, Barnyardgrass [7, 17]: 40; Kochia plant response rating (kochia (Kochia scoparia); [14]): 60; Plant response rating, Kochia (kochia (Kochia scoparia); [17]): 70; Corn plant response rating (corn (Zea mays); 500 g ai/ha): 0; Foxtail, Giant plant response rating [8, 14]: 50; Plant response rating, Foxtail, Giant [8, 17]: 50; Ragweed plant response rating [9, 14]: 60; Plant response rating, Ragweed [9, 17]: 80; Ryegrass, Italian plant response rating [10, 14]: 50; Ryegrass, Italian plant response rating [10, 15]: 20; Plant response rating, Ryegrass, Italian [10, 17]: 50; Plant response rating, Wheat [11, 12]: 0; Wheat plant response rating ([11]; 500 g ai/ha): 20
COC(=O)Oc1c(Cl)nn(C)c(=O)c1-c1c(C)sc2ccc(Cl)cc12 [Compound 101]	0	0	0	0	70	20	40	30	90	0	30	0	20	0	0	30	30	60	40	30	Plant response rating, Galium [4, 18]: 90; Plant response rating, Pigweed [6, 19]: 70; Plant response rating, Pigweed [6, 17]: 90; Plant response rating, Barnyardgrass [7, 17]: 30; Plant response rating, Kochia (kochia (Kochia scoparia); [19]): 30; Plant response rating, Kochia (kochia (Kochia scoparia); [17]): 40; Plant response rating, Corn (corn (Zea mays); [18]): 20; Plant response rating, Foxtail, Giant [8, 19]: 50; Plant response rating, Foxtail, Giant [8, 17]: 60; Plant response rating, Ragweed [9, 19]: 80; Plant response rating, Ragweed [9, 17]: 40; Plant response rating, Ryegrass, Italian [10, 19]: 50; Ryegrass, Italian plant response rating [10, 15]: 60; Plant response rating, Ryegrass, Italian [10, 17]: 100; Plant response rating, Wheat [11, 12]: 0; Plant response rating, Wheat [11, 18]: 20
